In patent US7968607B2, “Skin pore minimizers and skin elasticity improvers” (Koa Corporation, priority 2000, dated 2011):
Structures can show the parent of a compound that is named as a salt. Where two headings read alike, the source gives them in different places.

Columns and labels:
[1] = system: keratinocytes ("NHEK 6306", Clonetics); test: Contraction of collagen gel seeded with keratinocytes; assay type: cell-based, human; conditions: 1 hour after addition, area inside contracted ring, control (gel peeling alone) = 100
Description: • 1) After type I collagen (“Cellmatrix Type I-A”, Nitta Gelatin), “MCDB 153 medium” (Sigma Chemical Co.), 20 mM HEPES (Wako Pure Chemical Industries) and purified water were thoroughly mixed under ice cooling, 500 μL per well were added to a 24-well plate (Falcon), followed by warming at 37° C. in an incubator to effect gelation. Using MCDB 153 medium, 1 mL aliquots of keratinocytes (“NHEK 6306”, Clonetics) were seeded at 2×10^4 cells/cm^2 onto the collagen gels, respectively. Subsequent to incubation for 24 hours, the collagen gels were peeled off with a pipette tip from the culture dishes. Shortly after that, test substances prepared to a concentration as high as 100 times the final concentration were added 10 μL by 10 μL. Upon elapsed time of 1 hour after the addition, the gels were photographed using a “Minolta α707-si Camera” with “50 Macrolens”. Subsequent to development of the pictures, contracted rings were copied onto OHP sheets, the areas inside the contracted rings were determined by image analysis software, “Image-Pro PLUS” (Media Cybanetics, Inc.), and contraction ratios (%) were calculated supposing that the contraction ratio (%) of a control (gel peeling alone) was 100.

[2] = system: human skin fibroblasts (derived from a human fore skin); test: Collagen gel tightening promoting ability (fibroblast-embedded collagen gel, dermis model); assay type: cell-based; conditions: for activity at 15 µM / activity at 50 µM: read-out: Average gel volume
Description: Measurement was conducted on the ability to promote the tightening of a fibroblast-embedded collagen gel as a dermis model. The collagen gel was prepared following the procedure reported in a publication [J. Cell Science, 102, 315 (1992) or J. Invest. Dermatol., 93, 792 (1989)]. Described specifically, a solution of HEPES (250 mM) in a 0.05 N sodium hydroxide solution, a 5-fold concentrate of DMEM (“GIBCO DMEM”, low glucose), FCS (2%, Fetal Calf Serum) and purified water were added under ice cooling to a collagen gel solution (product of Nitta Gelatin Inc., “type 1-A” (3.0 mg/mL, pH=3)), and finally, a suspension of human skin fibroblasts (derived from a human fore skin) was added. After the resulting mixture was thoroughly stirred to eliminate bubbles, 600 μL per well was added to 24-well dishes, followed by immediate warming at 37° C. in an incubator to effect gelation. Three to four hours later, 1 mL of serum-free DMEM medium was added to each of the wells, and the gels were separated at peripheries thereof from the corresponding dishes and were brought into a floating state. Eighteen hours after that, the medium was replaced with serum-free DMEM media which contained 100 to 10 μM of test substances, respectively, and incubation was conducted further for 48 hours.
Volume measurement of the gels was conducted by a weight measuring method similar to that reported in the publication [J. Cell Science, 102, 315 (1992)]. Described specifically, subsequent to immobilization with 10% formalin (4° C., 24 hours), the surface tension of water was reduced by the addition of Triton X100 (product of Wako Pure Chemical Industries) (1%), and the weights were measured.
Measurement results of relative volumes for the respective compounds as calculated supposing that the volume of the control was 100% are presented in Table 3.

[3] = system: ear skin pores of New Zealand white rabbits; test: Rabbit ear skin pore size after topical application; assay type: in vivo; conditions: 2% solution in ethanol, 8 weeks
Description: Three of New Zealand white rabbits (male, about 2.5 kg) which ear skin pores were conspicuous were used. A 2% solution of Compound 9 (solvent: ethanol) was applied onto the left ear of each rabbit, and the solvent was applied onto the right ear of the rabbit as a control site, each on the inner side of the ala, twice a day, 150 μL each time.
Upon elapsed time of 8 weeks after the initiation of the application, the skin was collected, and the size of skin pores was measured by image analysis. Described specifically, each rabbit was sacrificed and then, his ears were collected. A scalpel was inserted into each ear sample around the applied site, and the skin was peeled off above the cartilage. At that time, care was exercised to avoid stretching of the skin. The skin was spread over a cork board and then, subjected to biopsy with a punch of 6 mm in diameter to collect the skin from six (6) locations on each ear. The collection was conducted such that skin samples were obtained from the same locations on both the left and right ears. […] On the image, the areas of the individual skin pores were measured, so that the skin pore area on each punched skin sample was calculated. An average of the skin pore areas on the six punched skin samples was recorded as the size of skin pores on the corresponding ear sample of the corresponding rabbit.

[4] = 15 μM, 48 hours, relative volume, control = 100%
[5] = 50 μM, 48 hours, relative volume, control = 100%
[6] = Homo sapiens, Skin fibroblast, 48 h
[7] = Homo sapiens, Skin fibroblast, 15 μM, 48 hours, relative volume, control = 100%
[8] = Homo sapiens, Skin fibroblast, 50 μM, 48 hours, relative volume, control = 100%

1-(2-decyltetradecyl)glycerol-3-phosphate monoarginine salt [Compound 41]
Contraction ratio (%) ([1]; 10 μM): 87.3%

1-(2-dodecylhexadecyl)-glycerol-3-phosphate monoarginine salt [Compound 42]
Contraction ratio (%) ([1]; 10 μM): 87.7%

1-(2-heptylundecyl)-glycerol-3-phosphate monoarginine salt [Compound 32]
Contraction ratio (%) ([1]; 10 μM): 52.2% | Average gel volume [2, 4]: 92% | Average gel volume [2, 5]: 75%

1-(2-hexyldecyl)-glycerol-3-phosphate monoarginine salt [Compound 33]
Contraction ratio (%) ([1]; 10 μM): 63.4%

1-(2-octyldodecyl)-glycerol-3-phosphate monoarginine salt [Compound 34]
Contraction ratio (%) ([1]; 10 μM): 67.3%

1-[2-(1,3,3-trimethylbutyl)-5,7,7-trimethyloctyl]-glycerol-3-phosphate monoarginine salt [Compound 35]
Contraction ratio (%) ([1]; 10 μM): 66.9%

1-dodecylglycerol-3-phosphate monoarginine salt [Compound 36]
Contraction ratio (%) ([1]; 10 μM): 71.3%

1-dodecylpropanediol-3-phosphate disodium salt [Compound 26]
Contraction ratio (%) ([1]; 1 μM): 73.5%

1-hexadecylglycerol-3-phosphate monoarginine salt [Compound 38]
Contraction ratio (%) ([1]; 10 μM): 81.4%

1-isostearylglycerol-3-phosphate monoarginine salt [Compound 31-A]
Contraction ratio (%) ([1]; 10 μM): 56.6% | Average gel volume [2, 4]: 94% | Average gel volume [2, 5]: 79%

1-isostearylglycerol-3-phosphate monoarginine salt [Compound 31-B]
Contraction ratio (%) ([1]; 10 μM): 56.7%

1-octadecylglycerol-3-phosphate monoarginine salt [Compound 39]
Contraction ratio (%) ([1]; 10 μM): 70.2%

1-oleylglycerol-3-phosphate monoarginine salt [Compound 40]
Contraction ratio (%) ([1]; 10 μM): 63.0%

1-tetradecylglycerol-3-phosphate monoarginine salt [Compound 37]
Contraction ratio (%) ([1]; 10 μM): 63.3%

CCCCCCCCCCCCCCCCCCOCC(O)COS(=O)(=O)O (centres unmarked) [Compound 2, 1-octadecylglycerol-3-sulfate sodium salt]
activity at 10 µM ([2]; Homo sapiens, Skin fibroblast, 10 μM, 48 hours, relative volume, control = 100%): 97% | activity at 30 µM ([2]; Homo sapiens, Skin fibroblast, 30 μM, 48 hours, relative volume, control = 100%): 92%

CCCCCCCCCCCCOCC(O)COP(=O)(O)O (centres unmarked) [Compound 5, 1-dodecylglycerol-3-phosphate disodium salt]
activity at 15 µM [2, 6]: 94% | activity at 50 µM [2, 6]: 83%

CCCCCCCCCCCCCCOCC(O)COP(=O)(O)O (centres unmarked) [Compound 6, 1-tetradecylglycerol-3-phosphate disodium salt]
activity at 15 µM [2, 7]: 91% | activity at 50 µM [2, 8]: 88%

CCCCCCCCCCCCCCCCOCC(O)COP(=O)(O)O (centres unmarked) [Compound 7, 1-hexadecylglycerol-3-phosphate disodium salt]
activity at 15 µM [2, 7]: 94% | activity at 50 µM [2, 8]: 79%

CCCCCCCCCCCCCCCCCCOCC(O)COP(=O)([O-])[O-].[Na+].[Na+] (centres unmarked) [Compound 8, 1-octadecylglycerol-3-phosphate disodium salt]
Contraction ratio (%) ([1]; 50 μM): 77.0% | activity at 15 µM [2, 6]: 93% | activity at 50 µM [2, 6]: 77%

CC(C)CCCCCCCCCCCCCCCOCC(O)COP(=O)([O-])[O-].[Na+].[Na+] (centres unmarked) [Compound 9, 1-isostearylglycerol-3-phosphate disodium salt]
Contraction ratio (%) ([1]; 50 μM): 62.3% | skin pore area ([3]; 150 μL twice a day on ear, control sites 0.022 mm^2): 0.015 mm^2 | smaller in skin pore area than the control sites ([3]; twice a day, versus solvent-applied ear): about 30%

CCCCCCCCCCCCO[C@@H]1O[C@H](COS(=O)(=O)[O-])[C@@H](O)[C@H](O)[C@H]1O.[Na+] [Compound 14, 1-β-O-dodecylglucopyranoside-6-sulfate sodium salt]
Contraction ratio (%) ([1]; 50 μM): 90.0%

CCCCCCCCCCCCCCO[C@H]1O[C@H](COS(=O)(=O)[O-])[C@H](O)[C@H](O)[C@H]1O.[Na+] [Compound 23, 1-α-O-tetradecylgalactopyranoside-6-sulfate sodium salt]
Contraction ratio (%) ([1]; 10 μM): 60.7%

CCCCCCCCCCCCCCO[C@@H]1O[C@H](COS(=O)(=O)[O-])[C@H](O)[C@H](O)[C@H]1O.[Na+] [Compound 24, 1-β-O-tetradecylgalactopyranoside-6-sulfate sodium salt]
Contraction ratio (%) ([1]; 10 μM): 84.9%

CCCCCCCCCCCCOCCCOS(=O)(=O)[O-].[Na+] [Compound 25, 1-dodecylpropanediol-3-sulfate sodium salt]
Contraction ratio (%) ([1]; 10 μM): 88.0%

CCCCCCCCCC(CCCCCCC)COCC(O)COP(=O)([O-])[O-].[Na+].[Na+] (centres unmarked) [Compound 28, 1-(2-heptylundecyl)glycerol-3-phosphate disodium salt]
Contraction ratio (%) ([1]; 10 μM): 48.3%

CC(C)CCCCCCCCCCCCCCCC(O)[C@@H](O)[C@@H](O)[C@H](O)[C@@H](CO)OP(=O)([O-])[O-].[Na+].[Na+] (some centres unmarked) [Compound 29, 1-isostearylmannitol-5-phosphate disodium salt]
Contraction ratio (%) ([1]; 10 μM): 53.3%

CC(C)CCCCCCCCCCCCCCCC(O)[C@@H](O)[C@@H](O)[C@H](O)[C@@H](CO)OS(=O)(=O)[O-].[Na+] (some centres unmarked) [Compound 30, 1-isostearylmannitol-5-sulfate sodium salt]
Contraction ratio (%) ([1]; 10 μM): 56.8%

dodecylglucopyranosidephosphate disodium salt mixture [Compound 27]
Contraction ratio (%) ([1]; 10 μM): 67.0%

octylglucopyranosidesulfate sodium salt mixture [Compound 18]
Contraction ratio (%) ([1]; 50 μM): 90.1%
